Test results from patent publication US5773439A, “Amido-quinoxalinediones, the preparation and use thereof” (BASF Aktiengesellschaft, priority 1994, dated 1998).

System: AMPA receptor
Assay: Binding of 3H-AMPA to rat cerebra membranes
Details: for activity compared with the substance of Example 56 in EP 572,852 and compound 16: 3H-AMPA binding; for Ki: displacement of 3H-AMPA, isolated membrane material from rat cerebra
Procedure: The pharmacological activity of the compounds I was investigated in isolated membrane material from rat cerebra. For this purpose, the membrane material was treated in the presence of the compounds according to the invention with the radiolabeled substances ^3 H-2-amino-3-hydroxy-5-methyl-4-isoxazolepropionic acid (^3 H-AMPA) [^3 H]-glycine or [^3 H]-kainate, these binding to specific receptors (AMPA, NMDA or kainate receptors). Subsequently, the radioactivity of the treated membranes was measured by scintillation counting. It was possible to determine from the bound radioactivity the amounts of bound ^3 H-AMPA, [^3 H]-glycine or [^3 H]-kainate, or in each case the amounts of these radiolabeled substances displaced. The dissociation constant KI (I=inhibitor) derived from this is a measure of the displacing action of the agent according to the invention and was found by iterative non-linear regression analysis using the statistical analysis system (SAS) on an IBM computer, similar to the "Ligand" program of P. J. Munson and D. Rodbard (Analytical Biochem. 107, 220 (1980), Ligand: Versatile Computerized Approach for Characterization of Ligand Binding Systems).
1. Binding of ^3 H-2-amino-3-hydroxy-5-methyl-4-isoxazolepropionic acid (^3 H-AMPA)
To prepare the membrane material, freshly removed rat cerebra were homogenized together with 15 times the volume of a buffer solution A comprising 30 mM α,α,α-tris(hydroxymethyl)methylamine hydrochloride (TRIS-HCl) and 0.5 mM ethylenediaminetetraacetic acid (EDTA), pH 7.4, using an Ultra-Turrax®. The suspension was centrifuged at 48,000 g for 20 min. After removal of the supernatant liquid, the protein-containing membrane material contained in the sediment was washed three times by suspension in buffer solution A and subsequent centrifugation at 48,000 g for 20 minutes each time. The membrane material was then suspended in 15 times the volume of buffer solution A and incubated at 37° C. for 30 min. The protein material was subsequently washed twice by centrifugation and suspension and stored at -70° C. until used.
For the binding assay, the protein material was thawed at 37° C. and washed twice by centrifugation at 48,000 g (20 min) and subsequent suspension in a buffer solution B comprising 50 mM TRIS-HCl, 0.1M potassium thiocyanate and 2.5 mM calcium chloride, pH 7.1. Subsequently, 0.25 mg of membrane material, 0.1 μCi of ^3 H-AMPA (60 Ci/mmol) and compound I were dissolved in 1 ml of buffer solution B and incubated on ice for 60 min. The incubated solution was filtered through a CF/B filter (from Whatman) which had previously been treated with a 0.5% strength aqueous solution of polyethyleneimine for at least 2 hours. The membrane residue was subsequently washed with 5 ml of cold buffer solution B in order to separate bound and free ^3 H-AMPA from one another. After measurement of the radioactivity of the bound ^3 H-AMPA in the membrane material by scintillation counting, the KI was determined by regression analysis of the displacement plots.

| activity compared with the substance of Example 56 in EP 572,852 and compound 16 (comparison in words) | Ki | activity compared with 1-carbamoyl-7-pyrrolylquinoxalinedione (Example 56 in EP 572,852) (comparison in words, test not named) | SMILES |
| --- | --- | --- | --- |
| more active | < 10 µM | – | O=C(Nn1c(=O)c(=O)[nH]c2cc(C(F)(F)F)ccc21)c1ccccc1 [Example 1, 1-Benzamido-6-trifluoromethylquinoxaline-2,3(1H,4H)-dione] |
| more active | < 10 µM | distinctly more active | O=C(Nn1c(=O)c(=O)[nH]c2cc(C(F)(F)F)c(-n3cccc3)cc21)c1ccccc1 [Example 29, 1-Benzamido-7-(1-pyrrolyl)-6-trifluoromethylquinoxaline-2,3-(1H,4H)-dione] |
